Consider five compounds from patent US8067424B2, “Selective inhibitors for cyclin-dependent kinases” (Emory University, priority 2007, dated 2011).

What all share (format): biochemical
In one experiment the target is PKCα (Homo sapiens, UniProt P17252). Kind of experiment: Kinase screen: PKCa assay. The procedure:
(§1) Generally, the same procedure was used for all assays. Since the total assay volume was 25.5 microliters, 0.5 microliters of inhibitors at 51× assay concentration were added to the plates before any other addition.
(§2) The basic procedure was to add 0.5 microliters inhibitor/control in DMSO to plate. Fifteen microliters of enzyme/substrate/buffer mix were added and incubated for 5 min. Ten microliters MgATP at the relevant concentration were added and incubated for 30 min. The assay was stopped by adding 5 microliters of 3% orthophosphoric acid. The assay was transferred to a p81 filter plate and read in a scintillation counter of 30 sec/well. Note that this assay procedure was not followed for MKK1, which instead involved a two-step assay, and PKC alpha, which required the addition of lipid vesicles.
PKCa assay: PKCa (5-20 mU diluted in 20 mM Hepes pH 7.4, 0.03% Triton X-100) was assayed against Histone H1 in the presence of PtdSerine and DAG (0.1 mg/ml. and 10 μg/ml) and 0.1 mM CaCl2. The assay was carried out in a final volume of 25.5 μl containing 20 mM Hepes pH 7.4, 0.03% Triton X-100, 0.1 mg/ml Histone H1, 10 mM magnesium acetate and 0.02 mM[33P-g-ATP] (50-1000 cpm/pmole) and incubated for 30 min at room temperature. Assays were stopped by addition of 5 μl of 0.5 M (3%) orthophosphoric acid and then harvested onto P81 Unifilter plates with a wash buffer of 50 mM orthophosphoric acid.
PtdSer/DAG preparation: PtdSer stock was 10 mg/ml in MeOH/Chloroform (1:2). The required amount was dried down and re-suspended in an appropriate volume of 10 mM Hepes pH 7.4, vortexed, and briefly sonicated (2×10^−15 seconds at 10-15 seconds apart). DAG stock was 10 mg/ml in MeOH/chloroform (1:2). The required amount was dried down and sonicated PtdSer solution was added, vortexed and sonicated.

In another experiment the target is CAMKKβ (Homo sapiens, UniProt Q96RR4). Kind of experiment: Kinase screen: CAMKKb assay. The method, then:
as §1, §2
(500-1000 cpm/pmole) and incubated for 30 mins at room temperature. […] Assays were harvested onto P81 Unifilter plates using a wash buffer of 50 mM orthophosphoric acid.

The subject of a further experiment is AMPK. Kind of experiment: Kinase screen: AMPK assay. To be noted: for mean activity remaining (as a percentage of the original activity), AMPK: 10 micromolar compound. The procedure: as §1, §2
AMPK assay: AMPK (5-20 mU diluted in 50 mM Hepes pH 7.5, 1 mM DTT, 0.02% Brij35) was assayed against SAMS substrate peptide ([…]) (SEQ ID NO: 11) in a final volume of 25.5 μl containing 50 mM Hepes pH 7.5, 1 mM DTT, 0.02% Brij35, 0.4 mM SAMS peptide, 0.196 mM AMP, 10 mM magnesium acetate and 0.05 mM [33P-g-ATP] (50-1000 cpm/pmole) and incubated for 30 min at room temperature. Assays were stopped by addition of 5 μl of 0.5 M (3%) orthophosphoric acid and then harvested onto P81 Unifilter plates with a wash buffer of 50 mM orthophosphoric acid.

A further experiment addresses CK1 (Homo sapiens, UniProt P48730). Kind of experiment: Kinase screen: CK1 assay. The procedure:
Generally, the same procedure was used for all assays. […] The basic procedure was to add 0.5 microliters inhibitor/control in DMSO to plate. Fifteen microliters of enzyme/substrate/buffer mix were added and incubated for 5 min. Ten microliters MgATP at the relevant concentration were added and incubated for 30 min. […] The assay was transferred to a p81 filter plate and read in a scintillation counter of 30 sec/well. Note that this assay procedure was not followed for MKK1, which instead involved a two-step assay, and PKC alpha, which required the addition of lipid vesicles. CK1 assay: […]

The next experiment has as its target T1, DYRK3 (Homo sapiens, UniProt O43781).
T1 sequence (O43781 1-588): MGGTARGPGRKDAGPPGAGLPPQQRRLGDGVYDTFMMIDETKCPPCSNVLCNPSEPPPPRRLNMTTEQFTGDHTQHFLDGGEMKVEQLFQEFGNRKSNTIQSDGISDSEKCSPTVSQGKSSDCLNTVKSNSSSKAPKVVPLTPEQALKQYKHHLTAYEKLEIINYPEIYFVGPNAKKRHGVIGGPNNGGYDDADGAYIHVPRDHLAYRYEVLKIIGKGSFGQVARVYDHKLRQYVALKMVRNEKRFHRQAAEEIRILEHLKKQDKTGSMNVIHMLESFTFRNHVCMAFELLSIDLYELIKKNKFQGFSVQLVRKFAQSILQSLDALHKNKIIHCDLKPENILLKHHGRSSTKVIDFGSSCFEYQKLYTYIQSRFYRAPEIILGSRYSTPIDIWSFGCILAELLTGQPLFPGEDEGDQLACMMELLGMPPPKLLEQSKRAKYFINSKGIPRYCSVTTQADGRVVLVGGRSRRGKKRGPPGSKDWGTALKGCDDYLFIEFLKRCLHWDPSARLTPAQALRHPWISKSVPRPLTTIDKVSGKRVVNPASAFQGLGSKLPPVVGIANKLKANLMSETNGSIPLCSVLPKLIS
Kind of experiment: Kinase screen: DYRK3 assay. The method, then:
as §1, §2
DYRK3 assay: DYRK3 (5-20 mU of diluted in 50 mM Tris pH7.5, 0.1 mM EGTA) was assayed against Woodtide ([…]) (SEQ ID NO: 29) in a final volume of 25.5 μl containing 50 mM Tris pH 7.5, 0.1 mM EGTA, 350 μM substrate peptide, 10 mM Magnesium acetate and 0.005 mM [33P-g-ATP] (50-1000 cpm/pmole) and incubated for 30 min at room temperature. Assays were stopped by addition of 5 μl of 0.5 M (3%) orthophosphoric acid and then harvested onto P81 Unifilter plates with a wash buffer of 50 mM orthophosphoric acid.

[1] abbreviates: 10 micromolar compound, read-out: mean activity remaining (as a percentage of the original activity), PKCa.
The mark [2] stands for this setting: 0.5 h, read-out: mean activity remaining (as a percentage of the original activity), CAMK Kb.
Where [3] appears, read: 0.5 h, 10 micromolar compound, read-out: mean activity remaining (as a percentage of the original activity), CK 1.
[4] abbreviates: 10 micromolar compound, read-out: mean activity remaining (as a percentage of the original activity), DYRK 3.

Like-named read-outs stand apart in the source and are kept apart here.

Chain of CK1 (P48730 whole entry): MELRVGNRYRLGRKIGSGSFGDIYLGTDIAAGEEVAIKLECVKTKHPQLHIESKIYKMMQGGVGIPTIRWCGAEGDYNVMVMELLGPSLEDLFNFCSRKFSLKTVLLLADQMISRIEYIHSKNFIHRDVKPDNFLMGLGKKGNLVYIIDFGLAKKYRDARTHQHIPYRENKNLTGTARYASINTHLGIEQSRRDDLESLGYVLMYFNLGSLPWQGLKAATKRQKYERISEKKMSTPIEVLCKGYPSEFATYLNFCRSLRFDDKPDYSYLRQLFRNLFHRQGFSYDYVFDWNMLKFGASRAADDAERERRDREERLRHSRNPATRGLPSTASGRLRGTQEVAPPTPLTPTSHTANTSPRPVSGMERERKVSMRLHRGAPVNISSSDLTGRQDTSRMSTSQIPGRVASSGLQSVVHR

Consider `CC(C)c1cnn2c(NCc3ccccc3F)cc(NCCCCCN)nc12` [ICEC-0232], for which, at PKCα (10 micromolar compound), the “mean activity remaining (as a percentage of the original activity), PKCa” value turned out to be 80%. The “mean activity remaining (as a percentage of the original activity), CAMK Kb” value at CAMKKβ (10 micromolar compound) was determined as 18%. Moreover, the “mean activity remaining (as a percentage of the original activity), AMPK” value with AMPK came to 75%. Also, at CK1 (10 micromolar compound), the “mean activity remaining (as a percentage of the original activity), CK 1” value is recorded as 9%. Further, the “mean activity remaining (as a percentage of the original activity), DYRK 3” value on DYRK3 (10 micromolar compound) amounted to 60%.

As to `CC[C@H](CO)Nc1cc(NCc2ccccc2)n2ncc(C(C)C)c2n1` [ICEC0067], the remaining activity at 10 µM is 93% at PKCα (setting [1]), 29% at CAMKKβ (setting [2]), 16% on CK1 (setting [3]) and 90% at DYRK3 (setting [4]). The “mean activity remaining (as a percentage of the original activity), AMPK” value with AMPK came to 84%.

Turning to `CC(C)c1cnn2c(NCc3ccccc3)cc(NCCCCCCCN)nc12` [BS-181], the remaining activity at 10 µM on PKCα (PKCα, 10 μM, read-out: Mean Remaining Enzyme Activity (%)) turned out to be 98%; at CAMKKβ (CAMKKβ, 10 μM, read-out: Mean Remaining Enzyme Activity (%)), 67%; at CK1 (CK1, 10 μM, read-out: Mean Remaining Enzyme Activity (%)), 29%; on DYRK3 (DYRK3, 10 μM, read-out: Mean Remaining Enzyme Activity (%)), 87%. For the same compound, the “Mean Remaining Enzyme Activity (%)” value with AMPK (AMPK, 10 μM) came to 122%.

Regarding `C=C[C@H](CO)Nc1cc(NCc2ccccc2)n2ncc(C(C)C)c2n1` [ICEC0065], the remaining activity at 10 µM is 101% on PKCα (setting [1]), 31% on CAMKKβ (setting [2]), 19% at CK1 (setting [3]) and 86% on DYRK3 (setting [4]). The “mean activity remaining (as a percentage of the original activity), AMPK” value with AMPK is 85%.

As to `CC(C)c1cnn2c(NCc3ccccc3)cc(N[C@@H](CO)[C@H](O)CO)nc12` [ICEC0318, (3S)-3-(7-(Benzylamino)-3-isopropylpyrazolo[1,5-a]pyrimidin-5-ylamino)butane-1,2,4-triol], the remaining activity at 10 µM was determined as 96% on PKCα (setting [1]); 23% at CAMKKβ (setting [2]); 19% at CK1 (0.5 h, read-out: mean activity remaining (as a percentage of the original activity), CK 1); 88% on DYRK3 (setting [4]). The “mean activity remaining (as a percentage of the original activity), AMPK” value with AMPK is reported as 88%.

The remaining activity is the signal under treatment as a percentage of the control signal.
